“Also recorded” adds a separate entry of the source. Read-outs that look alike come from different tables or passages of the source. Each block holds one compound with its values, some of them ahead of it.
How the values were obtained:
PBO-5 homomers = target: T1, PBO-5 homomers (Caenorhabditis elegans, UniProt G5ECT0); test: Two-electrode voltage clamp of Xenopus oocytes injected with PBO-5 cRNA (homomers); assay type: cell-based, C. elegans
T1 construct: cloned into the pCR2.1 TA cloning vector (Invitrogen) and a full length clone pPD68 was generated; expressed in transfected cells; host or cells: Xenopus oocytes injected with PBO-5 cRNA (pSGEM-based plasmid pAB20)
T1 sequence (G5ECT0 22-504 isoform G5ECT0-2 limits assumed): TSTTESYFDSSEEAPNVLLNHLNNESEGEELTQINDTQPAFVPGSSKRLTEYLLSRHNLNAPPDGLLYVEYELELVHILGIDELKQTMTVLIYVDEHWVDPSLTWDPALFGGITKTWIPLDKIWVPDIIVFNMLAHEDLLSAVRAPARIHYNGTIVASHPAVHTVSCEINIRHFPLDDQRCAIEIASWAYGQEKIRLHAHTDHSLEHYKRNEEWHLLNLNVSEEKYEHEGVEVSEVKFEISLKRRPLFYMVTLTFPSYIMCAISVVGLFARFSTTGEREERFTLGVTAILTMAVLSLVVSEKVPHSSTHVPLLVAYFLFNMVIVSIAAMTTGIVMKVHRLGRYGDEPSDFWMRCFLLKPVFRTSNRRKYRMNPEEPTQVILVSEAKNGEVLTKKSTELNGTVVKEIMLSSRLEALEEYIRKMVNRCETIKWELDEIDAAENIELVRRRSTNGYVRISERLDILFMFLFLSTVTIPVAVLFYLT
Description: (§1) Capped RNA was prepared using the T7 mMessage mMachine kit (Ambion). Xenopus oocytes were collected and coinjected with 25 ng each of PBO-5 and PBO-8 cRNA and two-electrode voltage clamp recordings were performed 3-5 days post-injection. The standard bath solution for dose-response and control I-V experiments was Ringer's (in mM): 115 NaCl, 1.8 […], 10 Bis-Tris Propane (pH 7.4 Acetic acid). For dose-response experiments, each oocyte was subjected to a 5 second application of test pH (7.0 - 5.0) with 2 minutes of pH 7.4 wash between test applications.
To determine if PBO-5 can form a homo-oligomeric receptor, we injected PBO-5 cRNA in Xenopus oocytes. […] Two-electrode voltage clamp recordings were used to assay receptor functionality.
To determine if PBO-5 and PBO-8 can co-assemble to form a functional receptor, we injected PBO-5 and PBO-8 cRNA into Xenopus oocytes. […] To determine the possible signal that mediates posterior body contraction we examined the pbo-4 gene.

PBO-5/PBO-8 receptors = test: Two-electrode voltage clamp of Xenopus oocytes coinjected with PBO-5 and PBO-8 cRNA; assay type: cell-based, C. elegans; conditions: for run-down (use-dependent block) of H+-evoked current by the buffer of the extracellular solution: repeated pH 6.8 test pulses
Description: as §1
Ion selectivity experiments: All points are responses to test pulse applications of pH 6.8 for 5 seconds. The reversal potential of PBO-5/PBO-8 expressing oocytes were first determined in standard Ringer's (in mM): 115 NaCl, 1.0 CaCl2, 10 Bis-Tris Propane (pH 7.4, acetic acid). For chloride permeability a simplified solution was used, chloride-free (in mM): 115 Na^+ gluconate, 1.0 CaCl2, 10 Bis-Tris Propane (pH 7.4 acetic acid). For Na^+ permeability a simplified solution was used, Na^+ free (in mM): 115 mM N-methyl D-glucamine (NMDG), 1.8 CaCl2, 10 Bis-Tris Propane (pH 7.4 acetic acid)). All solutions were brought to pH by addition of NaOH or acetic acid. To determine K^+ permeability, I-V experiments were performed in K^+ Ringer's (in mM): 115 K^+-gluconate, 1.0 CaCl2, 10 Bis-Tris Propane (pH=7.4 acetic acid). To determine Ca^2+ permeability extracellular Na^+ was lowered to 90 mM and extracellular CaCl2 was increased to 3 mM and 10 mM, compare to 1 mM Ca^2+ control. To better resolve calcium permeability, the Na^+ free solution was used except CaCl2 was increased ten-fold, 18 mM CaCl2 (in mM): 115 NMDG, 18 CaCl2, 10 Bis-Tris Propane, (pH 7.4 acetic acid). Osmolarity was measured for each solution and was maintained at 240 mOsm by the addition of sucrose. All recordings were done at room temperature. We used 3M KCl filled electrodes with a resistance between 1-3 MΩ. We used a 3M KCl agar bridge to minimize liquid junction potentials, and all liquid junctions potentials arising at the tip of the recording electrode were corrected online.
Data analysis. Data acquisition and analysis were performed using Axograph (Axon Instruments) software, and curve fitting and statistical analysis were performed with Prism (Graphpad). Dose-response curves from individual oocytes were normalized to the maximum and minimum values and averaged for at least eleven oocytes. Normalized data were fit to the four-parameter equation derived from the Hill equation: Y=Min+(Max−Min)/(1+10(Log EC50-X)(nH)), where Max is the maximal response, Min is the response at the lowest drug concentration, X is the logarithm of agonist concentration, EC50 is the half-maximal response, and nH is the Hill coefficient. Error bars represent the standard error of the mean.

PBO-8 homomers = test: Two-electrode voltage clamp of Xenopus oocytes injected with PBO-8 cRNA (homomers); assay type: cell-based, C. elegans
[1] = test system: posterior body contraction; test: Posterior body contraction of the defecation cycle in vivo; set-up: species or system C. elegans; conditions: 100 mM, pH 7.2, injected into pseudocoelomic space
Description: To determine if H^+ ions are required to initiate a posterior body contraction endogenous acidification of the pseudocoelomic space is blocked. For example, 100 mM Bis-Tris Propane buffered saline (pH 7.2) is injected into the pseudocoelomic space of an animal and defecation cycles postinjection observed. […] The injected animals should phenocopy both pbo-4 and pbo-5 mutants.
Alternatively, a caged buffer is used to assay the requirement for H^+ activation of PBO-5/PBO-8 receptors in vivo. For example, animals are injected with a caged buffer (Molecular Probes) and the buffer uncaged, by flash photolysis, as a posterior body contraction is about to occur. An advantage of the latter scheme is that an animal can be injected first and then observed for a number of cycles to determine if it retains normal defecation cycles, and in particular posterior body contractions. After quantification of a number of defecation cycles, the buffer is uncaged and the animal observed for a specific loss of posterior body contraction. Li addition, the inverse experiment, where caged protons are injected, may be conducted to elicit an out of phase posterior body contraction by uncaging the protons during the intercycle.
The posterior body contraction occurs via a calcium-regulated mechanism. […]

[2] = Xenopus oocytes, two-electrode voltage clamp

Compound: NCCc1c[nH]c2ccc(O)cc12 [serotonin]
- activation of PBO-5 homomers (functional response) (PBO-5 homomers): failed to elicit a functional response
- activation of PBO-5 homomers (functional response) (PBO-5 homomers; listed as 5-HT): lacked the ability to activate
- activation of PBO-5/PBO-8 heteromers (PBO-5/PBO-8 receptors; [2]): lacked the ability to activate
- activation of PBO-8 homomers (PBO-8 homomers): lacked the ability to activate

Compound: N[C@@H](CCC(=O)O)C(=O)O [glutamate]
- activation of PBO-5 homomers (functional response) (PBO-5 homomers): lacked the ability to activate
- activation of PBO-5/PBO-8 heteromers (PBO-5/PBO-8 receptors; [2]): lacked the ability to activate
- activation of PBO-8 homomers (PBO-8 homomers): lacked the ability to activate

Compound: NCC(=O)O [glycine]
- activation of PBO-5 homomers (functional response) (PBO-5 homomers): failed to elicit a functional response; also recorded: lacked the ability to activate
- activation of PBO-5/PBO-8 heteromers (PBO-5/PBO-8 receptors): lacked the ability to activate
- activation of PBO-8 homomers (PBO-8 homomers): lacked the ability to activate

- maximal activation of PBO-5/PBO-8 on increasing extracellular Ca2+ (PBO-5/PBO-8 receptors; pH 6.0): no effect on maximal activation
- H-evoked responses compared to 1 mM Ca2+ control (PBO-5/PBO-8 receptors; pH 7.0 and 6.8, Ca2+ increased to 3 mM and 10 mM): significantly reduced
Compound: [Ca+2] [Ca^2+]
- effect of extracellular Ca2+ on gating of PBO-5/PBO-8 (mode of action) (PBO-5/PBO-8 receptors; pH 6.8, 10.0 mM vs 1.0 mM Ca2+): inhibit gating; also recorded: competitive antagonist

Compound: NCCCC(=O)O [GABA, γ-aminobutyric acid]
- activation of PBO-5 homomers (functional response) (PBO-5 homomers): failed to elicit a functional response; also recorded: lacked the ability to activate
- co-activation: pH 6.8 plus ligand compared with pH 6.8 only application (PBO-5/PBO-8 receptors; 1 mM ligand, pH 6.8): not significantly different
- activation of PBO-5/PBO-8 heteromers (PBO-5/PBO-8 receptors; [2]): lacked the ability to activate
- activation of PBO-8 homomers (PBO-8 homomers): lacked the ability to activate

- run-down (use-dependent block) of H+-evoked current by the buffer of the extracellular solution (PBO-5/PBO-8 receptors): did not cause current run-down
Compound: OCC(CO)(CO)NCCCNC(CO)(CO)CO [Bis-Tris Propane, 1,3-Bis[tris(hydroxymethyl)methylamino) propane]
- posterior body contraction after injection of buffered saline into the pseudocoelomic space [1]: fail to initiate a posterior body contraction

Compound: d-tubocurare
- pharmacological block of PBO-5/8 responses (PBO-5/PBO-8 receptors; cholinergic antagonist applied to PBO-5/8 expressing cells): all attempts to pharmacologically block PBO-5/8 responses failed

- block of PBO-5/8 gating (PBO-5/PBO-8 receptors; 1 mm amiloride): did not result current block
Compound: N=C(N)NC(=O)c1nc(Cl)c(N)nc1N [amiloride]

- pH50 (PBO-5/PBO-8 receptors; 1 mM Ca2+ control conditions): 6.88
- pH50 (PBO-5/PBO-8 receptors; 10 mM Ca2+ test conditions): 6.59
- activation of PBO-5/PBO-8 heteromers (PBO-5/PBO-8 receptors; [2]): sufficient to activate
- pH of 10% maximal activation (PBO-5/PBO-8 receptors; perfusion buffer pH 7.4): ~7.0
- pH50 (half-maximal activation) (PBO-5/PBO-8 receptors; voltage-clamped at -60 mV, test pH 5 seconds, standard Ringer's, n=18): 6.83±0.01
Compound: [1H+] [H^+]

- run-down (use-dependent block) of H+-evoked current by the buffer of the extracellular solution (PBO-5/PBO-8 receptors): did not cause current run-down
Compound: O=S(=O)(O)CCN1CCOCC1 [MES, 2-(N-Morpholino)-ethanesulfonic acid]

Compound: O=S(=O)(O)CCN1CCN(CCO)CC1 [HEPES, N-2-hydroxyethylpiperazine-N′-2-ethanesulfonic acid]
- run-down (use-dependent block) of H+-evoked current by the buffer of the extracellular solution (PBO-5/PBO-8 receptors): very rapid rundown; also recorded: inhibitory to the receptor
